pIC50, pKi: −log10 of the molar value.
Experiments:
[1] = target: T1, PDE4B1 (Homo sapiens, UniProt Q07343); test: IMAP FP PDE assay, % inhibition at […]; format: biochemical; conditions: read-out: PDE4B1 ^a
T1 construct: gene PDE4B; isoform PDE4B1, human recombinant

[2] = target: T2, PDE4A1A (Homo sapiens, UniProt P27815); test: IMAP FP PDE assay, % inhibition at […]; format: biochemical
T2 construct: gene PDE4A; isoform PDE4A1A, human recombinant

[3] = target: T2, PDE4A1A; test: IMAP FP PDE assay (FAM-cAMP), concentration-response; format: biochemical
[4] = target: T3, adenosine A2A receptor (Homo sapiens, UniProt P29274); test: radioligand displacement with [3H]-CGS21680; format: binding
T3 construct: gene ADORA2A; human recombinant, expressed in HEK 293 cells

[5] = target: T4, PDE4D3 (Homo sapiens, UniProt Q08499); test: IMAP FP PDE assay, % inhibition at […]; format: biochemical
T4 construct: gene PDE4D; isoform PDE4D3, human recombinant
T4 sequence (Q08499 153-809): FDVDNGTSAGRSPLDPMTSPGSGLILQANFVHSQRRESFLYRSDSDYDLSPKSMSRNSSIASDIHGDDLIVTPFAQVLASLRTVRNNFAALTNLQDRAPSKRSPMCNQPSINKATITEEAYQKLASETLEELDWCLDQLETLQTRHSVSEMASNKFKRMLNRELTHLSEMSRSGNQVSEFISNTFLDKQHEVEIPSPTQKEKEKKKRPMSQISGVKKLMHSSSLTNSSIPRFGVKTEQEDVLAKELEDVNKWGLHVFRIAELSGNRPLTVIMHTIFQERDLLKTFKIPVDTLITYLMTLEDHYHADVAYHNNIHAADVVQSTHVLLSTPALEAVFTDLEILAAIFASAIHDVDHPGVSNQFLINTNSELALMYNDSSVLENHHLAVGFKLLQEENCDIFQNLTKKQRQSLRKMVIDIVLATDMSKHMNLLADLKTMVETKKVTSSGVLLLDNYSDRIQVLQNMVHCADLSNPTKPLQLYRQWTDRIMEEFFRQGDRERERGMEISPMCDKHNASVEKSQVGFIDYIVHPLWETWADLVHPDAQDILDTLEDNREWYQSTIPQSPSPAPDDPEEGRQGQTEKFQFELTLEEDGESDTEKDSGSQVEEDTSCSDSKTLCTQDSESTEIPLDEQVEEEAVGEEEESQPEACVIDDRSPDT

T2 sequence (P27815 265-886 limits assumed): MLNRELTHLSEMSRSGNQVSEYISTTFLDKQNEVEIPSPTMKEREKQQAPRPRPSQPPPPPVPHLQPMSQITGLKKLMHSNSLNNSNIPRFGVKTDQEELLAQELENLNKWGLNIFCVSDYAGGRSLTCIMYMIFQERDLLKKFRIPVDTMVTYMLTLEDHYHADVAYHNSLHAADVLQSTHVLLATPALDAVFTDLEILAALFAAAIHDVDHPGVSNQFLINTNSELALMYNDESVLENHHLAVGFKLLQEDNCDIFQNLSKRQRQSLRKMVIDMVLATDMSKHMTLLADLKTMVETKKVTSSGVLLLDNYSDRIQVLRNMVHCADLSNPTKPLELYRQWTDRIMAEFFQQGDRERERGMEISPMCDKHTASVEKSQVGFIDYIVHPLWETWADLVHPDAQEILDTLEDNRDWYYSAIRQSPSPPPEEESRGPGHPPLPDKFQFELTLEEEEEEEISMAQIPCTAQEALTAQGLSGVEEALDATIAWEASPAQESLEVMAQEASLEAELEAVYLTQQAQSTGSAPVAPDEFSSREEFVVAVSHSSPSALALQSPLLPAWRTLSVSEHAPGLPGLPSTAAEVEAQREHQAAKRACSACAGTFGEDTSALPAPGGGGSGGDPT
T1 sequence (Q07343 whole entry, canonical isoform): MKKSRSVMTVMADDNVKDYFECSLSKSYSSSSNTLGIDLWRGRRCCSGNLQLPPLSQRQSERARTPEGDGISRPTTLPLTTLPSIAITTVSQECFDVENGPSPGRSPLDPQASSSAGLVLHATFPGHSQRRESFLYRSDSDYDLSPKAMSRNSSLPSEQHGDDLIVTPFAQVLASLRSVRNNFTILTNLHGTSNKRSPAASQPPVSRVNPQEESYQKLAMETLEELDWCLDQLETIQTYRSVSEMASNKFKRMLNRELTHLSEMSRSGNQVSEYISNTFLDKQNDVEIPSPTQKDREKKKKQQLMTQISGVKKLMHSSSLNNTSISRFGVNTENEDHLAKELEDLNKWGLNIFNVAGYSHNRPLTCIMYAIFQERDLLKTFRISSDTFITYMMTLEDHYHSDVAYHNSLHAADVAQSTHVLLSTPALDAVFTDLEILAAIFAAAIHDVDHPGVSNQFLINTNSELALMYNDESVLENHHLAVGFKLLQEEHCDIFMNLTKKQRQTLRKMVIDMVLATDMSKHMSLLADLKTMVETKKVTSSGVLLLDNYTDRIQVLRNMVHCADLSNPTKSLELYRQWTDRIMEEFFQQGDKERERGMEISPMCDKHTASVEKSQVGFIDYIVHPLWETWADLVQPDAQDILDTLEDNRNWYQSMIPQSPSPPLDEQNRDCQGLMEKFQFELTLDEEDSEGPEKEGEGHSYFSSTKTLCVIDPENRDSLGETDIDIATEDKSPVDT
T3 sequence (P29274 whole entry): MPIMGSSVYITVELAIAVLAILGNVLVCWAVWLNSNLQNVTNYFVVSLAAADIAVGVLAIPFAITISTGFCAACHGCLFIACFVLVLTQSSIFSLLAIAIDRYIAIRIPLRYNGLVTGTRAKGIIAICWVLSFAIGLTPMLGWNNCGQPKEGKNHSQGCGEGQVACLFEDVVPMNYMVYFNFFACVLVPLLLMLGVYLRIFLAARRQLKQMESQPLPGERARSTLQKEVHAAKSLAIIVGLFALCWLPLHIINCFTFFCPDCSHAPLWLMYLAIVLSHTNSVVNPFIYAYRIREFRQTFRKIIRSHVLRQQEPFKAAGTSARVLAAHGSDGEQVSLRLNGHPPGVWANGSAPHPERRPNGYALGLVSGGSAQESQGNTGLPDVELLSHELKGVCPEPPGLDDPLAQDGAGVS

| Structure (SMILES) | inhibition at 10 µM [1] | inhibition at 10 µM [2] | pIC50 [3] | pKi [4] | inhibition at 10 µM [5] |
| --- | --- | --- | --- | --- | --- |
| COc1ccc(/C=N/NC(=O)c2cccs2)cc1OC [compound 3, LASSBio-1834] | 48% | 53% | – | – | – |
| COc1ccc(/C=N/N(C)C(=O)c2cccs2)cc1OC [compound 4, LASSBio-1835] | 44% | – | 5.97 | 5.82 | 40% |

— PMC6316713, “Design, Synthesis, Experimental and Theoretical Characterization of a New Multitarget 2-Thienyl-N-Acylhydrazone Derivative” (Pharmaceuticals, 2018)
